# Laboratory results: EP0728012B1, “NOVEL GnRH ANALOGUES WITH ANTITUMOUR EFFECTS AND PHARMACEUTICAL COMPOSITIONS THEREOF” (Lovas, Sandor, priority 1994, dated 1996)
# Like-named read-outs stand apart in the source and are kept apart here. Non-standard residues stand in square brackets, D forms with d. Residues, ends and D or L forms follow the SMILES beside them. pGlu = O=C1CC[C@@H](C(=O)O)N1
# Tests used:
# MCF-7 [1] = assay: Inhibition of colony formation by GnRH analogues (dose-survival, Example 48); type: cell-based, human; conditions: treated once
# Description: (§1) The examination gives accurate information about the cell-damaging effect of the substance tested as a function of varying doses. The treatment was carried out once; the colonies formed from the surviving cells were counted after 8 - 12 days. […] A part of the arrested cells again entered the cycle, another part of them might be destroyed (apoptosis). […] In the case of a dose-response investigation, colonies containing less than 15 cells were not counted. 300 cells were put into each Petri dishes of 3.5 cm in diameter. The treatment was once carried out 24 hours after setting, then the colonies formed were counted after 8 - 12 days. The cells were treated once after 24 hours with 1-50 µM of various GnRH analogues of Examples above or with 1 - 50 µM of GnRH-III, respectively. The percentages of inhibition obtained on MCF-7, MDA-MB-231, PC3 and Ishikawa cells, respectively, together with the dose of the active agent used are shown in Table VIII.
# MDA-MB-231 [2] = assay: as above; type: cell-based, human
# Description: as §1
# human tumour cell lines = assay: Inhibition of colony formation (Example 48), comparison with the control D-Trp^6-hGnRH; type: cell-based; conditions: data of Table VIII
# Description: as §1
# In these studies the D-Trp^6-hGnRH analogue (Sigma Co.) commonly used in the tumour therapy was employed as control.
# Ishikawa = assay: Inhibition of colony formation by GnRH analogues (dose-survival, Example 48); type: cell-based, human; conditions: 50 µM
# Description: as §1
# PC3 [3] = assay: as above; type: cell-based, human; conditions: for % Inhibition of the colony formation: 50 µM
# Description: as §1
# MCF-7 [4] = conditions: for % Inhibition of cell division (proliferation): MCF-7, 30 µM active substance, conjugate, treated once, cell count on 7th day
# Description: (§2) The procedure of treatment was as follows. After trypsinization the cells, 400,000 cells of MCF-7, MDA-MB-231 human mammary carcinoma, PC3 human prostate carcinoma or Ishikawa human endometrium tumour each were passed into Petri dishes of 10 cm in diameter. Starting from the day following transfer, the cells were treated with the substances to be tested in solution prepared with the nutrient medium during the exponential growth phase. […]
# MDA-MB-231 [5] = conditions: for % Inhibition of cell division (proliferation): MDA-MB-231, 30 µM active substance, conjugate, treated once
# Description: as §2
# [6] = system: Ishikawa human endometrium carcinoma cell line; assay: Inhibition of colony formation (dose-survival relation, Example 18); type: cell-based; conditions: for inhibition of colony formation: concentration not given; for % Inhibition of colony formation: 50 µM
# Description: (§3) In the case of cytostatics the cell-damaging effect is not cell-specific. […] One part of the arrested cells again go into the cycle, the other part may perish (apoptosis). […] The investigations were carried out on MCF-7 and MDA-MB-231 human mammary carcinoma cell lines, PC3 human prostate 15 carcinoma cell line and Ishikawa human endometrium carcinoma cell line. Three hundred cells were set into Petri dishes of 3.5 cm in diameter each. The treatment was carried out once, 24 hours following the explantation, then the colonies formed were counted after 9 to 12 days.
# [7] = system: MCF-7 human mammary carcinoma cell line; assay: as above; type: cell-based; conditions: for inhibition of colony formation: concentration not given; for % Inhibition of colony formation: 50 µM (active substance), treated once
# Description: as §3
# PC3 [8] = assay: In vitro inhibition of cell proliferation (Example 19); type: cell-based, human; conditions: 30 µM, peptide alone, two treatments on days 2 and 4
# Description: The procedure of treatment was as follows. After trypsinization the cells, 400,000 cells of MCF-7, MDA-MB-231 human mammary carcinoma, PC3 human prostate carcinoma or Ishikawa human endometrium tumour each were passed into Petri dishes of 10 cm in diameter. Starting from the day following transfer, the cells were treated with the substances to be tested in solution prepared with the nutrient medium during the exponential growth phase. The cultures were treated with 1 to 50 µM (calculated for the total volume of the culture) or MI-1544 GnRH antagonist, MI-1892 chicken GnRH antagonist or SJ-1004 GnRH antagonist analogues as well as synthetic lamprey GnRH-III hormone every two days and the cell count was determined on the 7th day.
# [9] = system: PC3 human prostate carcinoma cell line; assay: Inhibition of colony formation (dose-survival relation, Example 18); type: cell-based; conditions: for inhibition of colony formation: concentration not given
# Description: as §3
# [10] = system: MDA-MB-231 human mammary carcinoma cell line; assay: as above; type: cell-based; conditions: for % Inhibition of colony formation: 50 µM
# Description: as §3
compound,measurement,setting,value
"pGlu-His-Trp-Ser-Tyr-D-Trp-Leu-Arg-Pro-Gly-NH2 [D-Trp^6-hGnRH (Decapeptyl), reference compound]",% Inhibition of the colony formation,MCF-7 [1]; 10 µM,17.1%
same,% Inhibition of the colony formation,MCF-7 [1]; 50 µM,36.7%
same,% Inhibition of the colony formation,MDA-MB-231 [2]; 10 µM,15.7%
same,% Inhibition of the colony formation,MDA-MB-231 [2]; 50 µM,38.7%
"NCCCC[C@H](NC(=O)[C@H](Cc1c[nH]c2ccccc12)NC(=O)[C@H](CC(=O)O)NC(=O)[C@H](CCCCNC(=O)OCC1c2ccccc2-c2ccccc21)NC(=O)[C@H](CO)NC(=O)[C@H](Cc1c[nH]c2ccccc12)NC(=O)[C@H](Cc1c[nH]cn1)NC(=O)[C@@H]1CCC(=O)N1)C(=O)N1CCC[C@H]1C(=O)NCC(N)=O [Example 26, [Lys(εFmoc)]^5-GnRH-III]",inhibitory effect compared with the control D-Trp^6-hGnRH,human tumour cell lines,a weak if any effect
"NCCCC[C@H](NC(=O)[C@H](Cc1c[nH]c2ccccc12)NC(=O)[C@H](CCC(=O)O)NC(=O)[C@H](Cc1c[nH]cn1)NC(=O)[C@H](CO)NC(=O)[C@H](Cc1c[nH]c2ccccc12)NC(=O)[C@H](Cc1c[nH]cn1)NC(=O)[C@@H]1CCC(=O)N1)C(=O)N1CCC[C@H]1C(=O)NCC(N)=O [8. Glu^6-GnRH-III, Glu^6-GnRH-III]",% Inhibition of the colony formation,Ishikawa,2%
same,% Inhibition of the colony formation,PC3 [3],31%
same,% Inhibition of the colony formation,MCF-7 [1]; 50 µM,44%
same,% Inhibition of the colony formation,MDA-MB-231 [2]; 50 µM,25%
same,inhibitory effect compared with the control D-Trp^6-hGnRH,human tumour cell lines,exceeded the inhibitory effect of control
"Ac-D-Trip^1,3,D-Cpa^2,{Lys[n-poly(N-vinylpyrrolidone-co-maleic acid)-Gly-Leu-Gly-]}^5,[a-Asp(DEA)]^6, D-Ala^10-GnRH [P-GLG-1892]",% Inhibition of cell division (proliferation),MCF-7 [4]; listed as 13. P-GLG-MI-1892,33%
same,% Inhibition of cell division (proliferation),MDA-MB-231 [5]; listed as 13. P-GLG-MI-1892,35%
"NCCCC[C@H](NC(=O)[C@H](CO)NC(=O)[C@H](Cc1c[nH]c2ccccc12)NC(=O)[C@H](Cc1c[nH]cn1)NC(=O)[C@@H]1CCC(=O)N1)C(=O)N[C@@H](CC(=O)O)C(=O)N[C@@H](Cc1c[nH]c2ccccc12)C(=O)N[C@@H](CCCCN)C(=O)N1CCC[C@H]1C(=O)NCC(N)=O [2. Lys^5-GnRH-III, Lys^5-GnRH-III]",% Inhibition of the colony formation,MCF-7 [1]; 50 µM,0%
same,% Inhibition of the colony formation,MDA-MB-231 [2]; 50 µM,0%
"NCCCC[C@H](NC(=O)[C@H](CO)NC(=O)[C@H](Cc1c[nH]c2ccccc12)NC(=O)[C@H](Cc1c[nH]cn1)NC(=O)[C@@H]1CCC(=O)N1)C(=O)N[C@H]1CC(=O)NCCCC[C@@H](C(=O)N2CCC[C@H]2C(=O)NCC(N)=O)NC(=O)[C@H](Cc2c[nH]c3ccccc23)NC1=O [Lys^5, cyclo[Asp^6-Lys^8]-GnRH-III]",inhibition of colony formation,[6],13%
same,inhibition of colony formation,[7],44%
same,% Inhibition of the colony formation,Ishikawa,13%
same,% Inhibition of the colony formation,MCF-7 [1]; 50 µM,44%
same,inhibitory effect compared with the control D-Trp^6-hGnRH,human tumour cell lines,exceeded the inhibitory effect of control
"Ac-D-Trp^1,3,D-Cpa^2,{Lys[n-poly(N-vinylpyrrolidone-co-maleic acid)-Phe-Leu-Gly-]}^5,a-Asp (DEA)]^6,D-Ala^10-GnRH [P-FLG-1892]",% Inhibition of cell division (proliferation),MCF-7 [4]; listed as 12. P-FLG-MI-1892,33%
same,% Inhibition of cell division (proliferation),MDA-MB-231 [5]; listed as 12. P-FLG-MI-1892,35%
"CC(C)C[C@H](NC(=O)[C@@H](CCCCN)NC(=O)[C@H](Cc1ccc(O)cc1)NC(=O)[C@H](CO)NC(=O)[C@@H](Cc1c[nH]c2ccccc12)NC(=O)[C@@H](Cc1ccccc1)NC(=O)[C@@H]1CCC(=O)N1)C(=O)N[C@@H](CCCNC(=N)N)C(=O)N1CCC[C@H]1C(=O)NCC(N)=O [SJ-1004, D-Phe^2,D-Trp^3,D-Lys^6-hGnRH, reference compound] ([pGlu][dF][dW]SY[dK]LRPG-NH2)",inhibition of proliferation,PC3 [8],10%
same,% Inhibition of colony formation,[6],5%
same,% Inhibition of colony formation,[9]; 50 µM,0%
same,% Inhibition of colony formation,[7],31%
same,% Inhibition of colony formation,[10],26%
same,inhibition of proliferation (decrease in cell count),"MCF-7 [4]; MCF-7 (10% FCS), 30 µM, peptide alone, treated every two days (two treatments, days 2 and 4)",17%
same,inhibition of proliferation (decrease in cell count),"MDA-MB-231 [5]; MDA-MB-231 (10% FCS), 30 µM, peptide alone, treated every two days (two treatments)",23%
"CC(C)C[C@H](NC(=O)[C@@H](Cc1c[nH]c2ccccc12)NC(=O)[C@H](CCCCN)NC(=O)[C@H](CO)NC(=O)[C@H](Cc1c[nH]c2ccccc12)NC(=O)[C@H](Cc1c[nH]cn1)NC(=O)[C@@H]1CCC(=O)N1)C(=O)N[C@@H](CCCNC(=N)N)C(=O)N1CCC[C@H]1C(=O)NCC(N)=O [17. Lys^5-DTrp^6-hGnRH, Lys^5,D-Trp^6-hGnRH] ([pGlu]HWSK[dW]LRPG-NH2)",% Inhibition of the colony formation,Ishikawa,17%
same,% Inhibition of the colony formation,"Ishikawa; listed as compound 17, 50 µM",15%
same,% Inhibition of the colony formation,PC3 [3],18%
same,inhibition of colony formation,PC3 [3]; within the dose range used (1-50 µM),weakly inhibited
same,% Inhibition of the colony formation,MCF-7 [1]; 10 µM,39%
same,% Inhibition of the colony formation,MCF-7 [1]; 50 µM,65%
same,% Inhibition of the colony formation,MDA-MB-231 [2]; 10 µM,30%
same,% Inhibition of the colony formation,MDA-MB-231 [2]; 50 µM,63%
same,inhibitory effect compared with the control D-Trp^6-hGnRH,human tumour cell lines,a twice stronger inhibition
"NCCCC[C@H](NC(=O)[C@H](Cc1cn(C=O)c2ccccc12)NC(=O)[C@H](CC(=O)O)NC(=O)[C@H](Cc1c[nH]cn1)NC(=O)[C@H](CO)NC(=O)[C@H](Cc1cn(C=O)c2ccccc12)NC(=O)[C@H](Cc1c[nH]cn1)NC(=O)[C@@H]1CCC(=O)N1)C(=O)N1CCC[C@H]1C(=O)NCC(N)=O [14. [Trp(For-Ind)]^3,7- -GnRH-III, [Trp(For-Ind)]^3,7-GnRH-III]",% Inhibition of the colony formation,Ishikawa,24%
same,% Inhibition of the colony formation,MCF-7 [1]; 50 µM,31%
same,inhibitory effect compared with the control D-Trp^6-hGnRH,human tumour cell lines,approximated the activity of the control
"CC(C)C[C@H](NC(=O)[C@@H](Cc1c[nH]c2ccccc12)NC(=O)[C@H](Cc1ccc(O)cc1)NC(=O)[C@H](CO)NC(=O)[C@H](Cc1c[nH]c2ccccc12)NC(=O)[C@H](Cc1c[nH]cn1)NC(=O)[C@@H](N)CCC(=O)O)C(=O)N[C@@H](CCCNC(=N)N)C(=O)N1CCC[C@H]1C(=O)NCC(N)=O [19. H-Glu^1,D-Trp^6 - hGnRH, H-Glu^1,D-Trp^6-hGnRH]",% Inhibition of the colony formation,MCF-7 [1]; 10 µM,16.8%
same,% Inhibition of the colony formation,MCF-7 [1]; 50 µM,32.7%
same,inhibitory effect compared with the control D-Trp^6-hGnRH,human tumour cell lines,approximated the activity of the control
"{Lys[n-poly(N-vinylpyrrolidone-co-maleic acid)-Gly-Phe-Leu-Gly-]}^4,-GnRH-III [P-GFLG-Lys^4-GnRH-III]",% Inhibition of colony formation,[6],25%
same,inhibition of colony formation,[6],25%
same,% Inhibition of colony formation,[9]; 30 µM,94%
same,inhibition of colony formation,[9],94%
same,% Inhibition of colony formation,[7],68%
same,inhibition of colony formation,[7],68%
same,% Inhibition of colony formation,[10],75%
same,inhibition of colony formation,[10]; concentration not given,75%
"{Lys[n-poly(N-vinylpyrrolidone-co-maleic acid)-Gly-Phe-Leu-Gly-]}^5,cyclo(Asp^6-Lys^8)-GnRH-III [P-GFLG-Lys^5-cyclo(Asp^6,Lys^8)-GnRH-III]",% Inhibition of colony formation,[6],19%
same,inhibition of colony formation,[6],19%
same,% Inhibition of colony formation,[9]; 50 µM,100%
same,inhibition of colony formation,[9],100%
same,% Inhibition of colony formation,[7],78%
same,% Inhibition of colony formation,[10],82%
"NCCCC[C@H](NC(=O)[C@H](Cc1ccccc1)NC(=O)[C@H](CC(=O)O)NC(=O)[C@H](Cc1c[nH]cn1)NC(=O)[C@H](CO)NC(=O)[C@H](Cc1c[nH]c2ccccc12)NC(=O)[C@H](Cc1c[nH]cn1)NC(=O)[C@@H]1CCC(=O)N1)C(=O)N1CCC[C@H]1C(=O)NCC(N)=O [15. Phe^7 -GnRH-III, Phe^7-GnRH-III]",% Inhibition of the colony formation,MCF-7 [1]; 50 µM,26%
same,% Inhibition of the colony formation,MDA-MB-231 [2]; 50 µM,21%
same,inhibitory effect compared with the control D-Trp^6-hGnRH,human tumour cell lines,a weak if any effect
